Experimental data: ChEMBL document CHEMBL5614376, “Discovery of MT-1207: A Novel, Potent Multitarget Inhibitor as a Promising Clinical Candidate for the Treatment of Hypertension” (J Med Chem, 2024); call rule not given here

What was measured:
[1] = molecular target: T1, 5-hydroxytryptamine receptor 2A (Homo sapiens, UniProt P28223); assay: Displacement of [3H]Ketanserin from recombinant human 5-HT2A receptor extracted from CHO cell membrane at 10 nM incubated for 60 mins by radioligand binding assay relative to control; format: cell membranes; conditions: filed as antagonist
T1 sequence (P28223 whole entry): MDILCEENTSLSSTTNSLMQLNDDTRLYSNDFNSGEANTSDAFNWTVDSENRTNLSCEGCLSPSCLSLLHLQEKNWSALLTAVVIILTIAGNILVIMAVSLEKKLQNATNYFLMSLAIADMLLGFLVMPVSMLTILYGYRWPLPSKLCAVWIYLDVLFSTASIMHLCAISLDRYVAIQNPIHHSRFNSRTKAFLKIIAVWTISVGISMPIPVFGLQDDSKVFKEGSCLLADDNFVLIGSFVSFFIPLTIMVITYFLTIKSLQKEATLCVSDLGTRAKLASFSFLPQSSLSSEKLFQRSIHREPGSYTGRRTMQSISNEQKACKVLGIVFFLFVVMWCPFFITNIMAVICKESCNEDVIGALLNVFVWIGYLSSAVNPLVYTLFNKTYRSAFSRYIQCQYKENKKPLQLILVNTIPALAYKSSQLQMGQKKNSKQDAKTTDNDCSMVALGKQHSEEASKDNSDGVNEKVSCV

[2] = molecular target: T1, 5-hydroxytryptamine receptor 2A; assay: Displacement of [3H]Ketanserin from recombinant human 5-HT2A receptor extracted from CHO cell membrane at 100 nM incubated for 60 mins by radioligand binding assay relative to control; format: cell membranes; conditions: filed as antagonist
[3] = Plasma protein binding in Cynomolgus monkey at 0.1 uM incubated for 30 mins; format: ADME, cell-free, Macaca fascicularis; conditions: read-out: PPB (converted)
[4] = Plasma protein binding in Cynomolgus monkey at 10 uM incubated for 30 mins; format: ADME, cell-free, Macaca fascicularis; conditions: read-out: PPB (converted)
[5] = Metabolic stability in macaque liver microsomes assessed as drug metabolism at 10 umol/L incubated upto 120 mins in presence of NADPH by LC-MS/MS analysis; format: ADME, Microsome; conditions: macaca, 2 h, 10 µM, dose 10 µmol/L
[6] = Metabolic stability in rat liver microsomes assessed as drug elimination at 10 umol/L incubated for 5 mins in presence of NADPH by LC-MS/MS analysis; format: ADME, Microsome; conditions: 10 µM, dose 10 µmol/L
[7] = Metabolic stability in Beagle dog liver microsomes assessed as drug elimination at 10 umol/L incubated for 5 mins in presence of NADPH by LC-MS/MS analysis; format: ADME, Canis lupus familiaris, Microsome; conditions: 10 µM, dose 10 µmol/L
[8] = Metabolic stability in rat liver microsomes assessed as compound remaining at 10 umol/L incubated upto 120 mins in presence of NADPH by LC-MS/MS analysis; format: ADME, Microsome; conditions: dose 10 µmol/L, read-out: Stability
[9] = AUC (0 to t) in Sprague-Dawley rat at 1 mg/kg, iv measured for 24 hrs by UPLC/MS/MS analysis; format: ADME, organism-based; conditions: in vivo
[10] = Tmax in Sprague-Dawley rat at 1 mg/kg, po measured for 24 hrs by UPLC/MS/MS analysis; format: ADME, organism-based; conditions: in vivo
[11] = AUC (0 to t) in Sprague-Dawley rat at 1 mg/kg, po measured for 24 hrs by UPLC/MS/MS analysis; format: ADME, organism-based; conditions: in vivo
[12] = Apparent volume of distribution during terminal phase in Sprague-Dawley rat at 1 mg/kg, po measured for 24 hrs by UPLC/MS/MS analysis; format: ADME, organism-based; conditions: in vivo, read-out: Vz/F
[13] = Apparent oral clearance in Sprague-Dawley rat at 9 mg/kg, po measured for 24 hrs by UPLC/MS/MS analysis; format: ADME, organism-based; conditions: in vivo
Rattus norvegicus [14] = assay: Effect on postural hypotension in Sprague-Dawley rat assessed as change in systolic blood pressure at 2.5 mg/kg, po treated for >30 mins followed by induction of postural hypotension measured immediately after postural change (reference value: 131 +/- 9 mmHg); format: functional; conditions: 0.5 h
Rattus norvegicus [15] = assay: Effect on postural hypotension in Sprague-Dawley rat assessed as change in systolic blood pressure at 10 mg/kg, po treated for >30 mins followed by induction of postural hypotension measured immediately after postural change (reference value: 131 +/- 9 mmHg); format: functional; conditions: 0.5 h
Rattus norvegicus [16] = assay: Effect on postural hypotension in Sprague-Dawley rat assessed as change in systolic blood pressure at 5 mg/kg, po treated for >30 mins followed by induction of postural hypotension measured 3 secs after postural change (reference value: 124 +/- 10 mmHg); format: functional; conditions: time > 30.05 min, 0.5008 h
Rattus norvegicus [17] = assay: Effect on postural hypotension in Sprague-Dawley rat assessed as change in systolic blood pressure at 5 mg/kg, po treated for >30 mins followed by induction of postural hypotension measured 20 secs after postural change (reference value: 129 +/- 11 mmHg); format: functional; conditions: time > 30.33 min, 0.5055 h
Rattus norvegicus [18] = assay: Effect on postural hypotension in Sprague-Dawley rat assessed as change in systolic blood pressure at 10 mg/kg, po treated for >30 mins followed by induction of postural hypotension measured 20 secs after postural change (reference value: 129 +/- 11 mmHg); format: functional; conditions: time > 30.33 min, 0.5055 h
Rattus norvegicus [19] = assay: Effect on postural hypotension in Sprague-Dawley rat assessed as change in systolic blood pressure at 2.5 mg/kg, po treated for >30 mins followed by induction of postural hypotension measured 40 secs after postural change (reference value: 128 +/- 11 mmHg); format: functional; conditions: time > 30.67 min, 0.5112 h
Rattus norvegicus [20] = assay: Effect on postural hypotension in Sprague-Dawley rat assessed as change in systolic blood pressure at 10 mg/kg, po treated for >30 mins followed by induction of postural hypotension measured 60 secs after postural change (reference value: 127 +/- 10 mmHg); format: functional; conditions: time > 31 min
[21] = Toxicity in male Sprague-Dawley rat assessed as change in body weight at 30 mg/kg, po qd treated for 13 weeks consecutively measured post-cessation of treatment; format: organism-based; conditions: in vivo, 2184 h
[22] = Toxicity in female Sprague-Dawley rat assessed as reduction in body weight at 100 mg/kg, po qd treated for 4 days consecutively; format: organism-based; set-up: scale not given: the % may be the effect or the level left; conditions: in vivo, 96 h, time 4 day
[23] = Tmax in male Sprague-Dawley rat at 30 mg/kg, po measured on day 1 by UP/LC/MS/MS analysis; format: ADME, organism-based; conditions: in vivo, time 1 day
[24] = Tmax in female Sprague-Dawley rat at 100 mg/kg, po measured on day 1 by UP/LC/MS/MS analysis; format: ADME, organism-based; conditions: in vivo, time 1 day
[25] = Cmax in male Sprague-Dawley rat at 10 mg/kg, po measured on day 1 by UP/LC/MS/MS analysis; format: ADME, organism-based; conditions: in vivo, time 1 day
[26] = AUC (0 to t) in male Sprague-Dawley rat at 10 mg/kg, po measured on day 1 by UP/LC/MS/MS analysis; format: ADME, organism-based; conditions: in vivo, time 1 day
[27] = AUC (0 to t) in male Sprague-Dawley rat at 30 mg/kg, po measured on day 1 by UP/LC/MS/MS analysis; format: ADME, organism-based; conditions: in vivo, time 1 day
[28] = AUC (0 to t) in female Sprague-Dawley rat at 30 mg/kg, po measured on day 1 by UP/LC/MS/MS analysis; format: ADME, organism-based; conditions: in vivo, time 1 day
[29] = Tmax in female Sprague-Dawley rat at 30 mg/kg, po qd treated for 13 weeks consecutively measured after recovery period on day 91 by UP/LC/MS/MS analysis; format: ADME, organism-based; conditions: in vivo, time 91 day
[30] = Tmax in male Sprague-Dawley rat at 100 mg/kg, po qd treated for 13 weeks consecutively measured after recovery period on day 91 by UP/LC/MS/MS analysis; format: ADME, organism-based; conditions: in vivo, time 91 day
[31] = Cmax in female Sprague-Dawley rat at 10 mg/kg, po qd treated for 13 weeks consecutively measured after recovery period on day 91 by UP/LC/MS/MS analysis; format: ADME, organism-based; conditions: in vivo, time 91 day
[32] = AUC (0 to t) in male Sprague-Dawley rat at 30 mg/kg, po qd treated for 13 weeks consecutively measured after recovery period on day 91 by UP/LC/MS/MS analysis; format: ADME, organism-based; conditions: in vivo, time 91 day
[33] = AUC (0 to t) in male Sprague-Dawley rat at 100 mg/kg, po qd treated for 13 weeks consecutively measured after recovery period on day 91 by UP/LC/MS/MS analysis; format: ADME, organism-based; conditions: in vivo, time 91 day
[34] = AUC (0 to t) in female Sprague-Dawley rat at 100 mg/kg, po qd treated for 13 weeks consecutively measured after recovery period on day 91 by UP/LC/MS/MS analysis; format: ADME, organism-based; conditions: in vivo, time 91 day

Cl.c1ccc2c(c1)nnn2CCCCN1CCN(c2nsc3ccccc23)CC1
inhibition [1]: 96% | inhibition [2]: 99% | fraction unbound at 0.5 h, 0.1 µM [3]: 0.015 | fraction unbound at 0.5 h, 10 µM [4]: 0.005 | Drug metabolism [5]: Metabolite_Detected | Drug excretion [6]: Active | Drug excretion [7]: Active | remaining at 2 h, 10 µM [8]: 21.1% | AUC(0-t) at 24 h [9]: 440 ng·h/mL | Tmax [10]: 9.6 min | AUC(0-t) at 24 h [11]: 51.7 ng·h/mL | Vd/F [12]: 51.5 L | CL/F [13]: 587 mL/min | Activity (Rattus norvegicus [14]): 96 mmHg | Activity (Rattus norvegicus [15]): 89 mmHg | Activity (Rattus norvegicus [16]): 80 mmHg | Activity (Rattus norvegicus [17]): 83 mmHg | Activity (Rattus norvegicus [18]): 85 mmHg | Activity (Rattus norvegicus [19]): 92 mmHg | Activity (Rattus norvegicus [20]): 85 mmHg | Activity [21]: Non-Toxic | Activity [22]: ~ 3.3% | Tmax [23]: 1 h | Tmax [24]: 2 h | Cmax [25]: 19.2 ng/mL | AUC(0-t) at 24 h [26]: 44.5 ng·h/mL | AUC(0-t) at 24 h [27]: 318 ng·h/mL | AUC(0-t) at 24 h [28]: 1440 ng·h/mL | Tmax [29]: 1 h | Tmax [30]: 1.3 h | Cmax [31]: 140 ng/mL | AUC(0-t) at 2184 h [32]: 672 ng·h/mL | AUC(0-t) at 2184 h [33]: 4790 ng·h/mL | AUC(0-t) at 2184 h [34]: 7450 ng·h/mL
